Results: patent US20240150293A1, “SPIROCYCLOHEXANE DERIVATIVES, PHARMACEUTICAL COMPOSITIONS CONTAINING THEM AND THEIR USES AS ANTI-APOPTOTIC INHIBITORS” (LES LABORATOIRES SERVIER, priority 2021, published 2024)

Biological target: Mcl-1 protein (UniProtKB Q07820) (Homo sapiens (Human), UniProt Q07820)
Experiment: Inhibition of Mcl-1 by the fluorescence polarisation assay (Example A, Method A)
Type: binding
Conditions: fluorescence polarization assay
Procedure, shortened: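 Protein (5 nM) and fluorescein-tagged peptide tracer (1 nM) incubated with 11-point compound series for 2 h at room temperature in HEPES/NaCl/Tween 20 buffer, pH 7.4, 5% DMSO. Displacement read as decrease in polarisation; IC50 fitted by 4-parameter logistic, converted to Ki (cKi or eKi).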

Sequence of Mcl-1 protein (Q07820 whole entry): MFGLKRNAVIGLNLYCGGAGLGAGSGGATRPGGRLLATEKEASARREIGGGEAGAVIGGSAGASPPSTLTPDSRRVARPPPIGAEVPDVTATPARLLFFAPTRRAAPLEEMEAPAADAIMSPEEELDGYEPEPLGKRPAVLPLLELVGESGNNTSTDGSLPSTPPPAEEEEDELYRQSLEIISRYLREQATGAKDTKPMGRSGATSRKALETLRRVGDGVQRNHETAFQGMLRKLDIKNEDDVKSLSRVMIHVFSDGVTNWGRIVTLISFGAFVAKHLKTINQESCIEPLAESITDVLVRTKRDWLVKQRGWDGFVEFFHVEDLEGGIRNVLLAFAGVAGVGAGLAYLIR

Compound	Ki [nM]
O=C(O)[C@]1(Nc2cccc(Cl)c2)CC[C@@]2(CC1)c1ccccc1CC2C1CCCC1 (single isomer, unassigned) [Example 92, (1r,4r)-4-(3-chloroanilino)-2′-cyclopentyl-2′,3′-dihydrospiro[cyclohexane-1,1′-indene]-4-carboxylic acid]	7370
COc1ccc2c(c1)[C@]1(CC[C@@](Nc3cccc(Br)c3)(C(=O)O)CC1)C(Cc1ccccc1)C2 (stereo partly shown) [Example 127, (1r,4r)-2′-benzyl-4-(3-bromoanilino)-6′-methoxy-2′,3′-dihydrospiro[cyclohexane-1,1′-indene]-4-carboxylic acid]	2820
C[C@@H](COc1ccnc(CO)c1)C[C@H]1Cc2ccccc2[C@]12CC[C@@](Nc1cccc(Cl)c1)(C(=O)O)CC2 [Example 579, (1r,2′S,4S)-4-(3-chloroanilino)-2′-[(2R)-3-{[2-(hydroxymethyl)pyridin-4-yl]oxy}-2-methylpropyl]-2′,3′-dihydrospiro[cyclohexane-1,1′-indene]-4-carboxylic acid]	216
O=C(O)[C@]1(Nc2cccc(Cl)c2)CC[C@@]2(CC1)c1ccccc1CC2c1cccc(Oc2cccnc2)c1 (single isomer, unassigned) [Example 374, (1r,4r)-4-(3-chloroanilino)-2′-{3-[(pyridin-3-yl)oxy]phenyl}-2′,3′-dihydrospiro[cyclohexane-1,1′-indene]-4-carboxylic acid]	189
COc1ccc(Cl)c(C2Cc3ccccc3[C@]23CC[C@@](Nc2ccccc2)(C(=O)O)CC3)c1 (single isomer, unassigned) [Example 261, (1r,4r)-4-anilino-2′-(2-chloro-5-methoxyphenyl)-2′,3′-dihydrospiro[cyclohexane-1,1′-indene]-4-carboxylic acid]	9400
CN(Cc1ccccc1)CC1=Cc2ccccc2[C@]12CC[C@@](Nc1cccc(Cl)c1)(C(=O)O)CC2 [Example 184, (1s,4s)-2′-{[benzyl(methyl)amino]methyl}-4-(3-chloroanilino)spiro[cyclohexane-1,1′-indene]-4-carboxylic acid]	1230
O=C(O)[C@]1(Nc2cccc(Cl)c2)CC[C@@]2(CC1)c1ccccc1CC2[C@H]1C[C@@H]1COc1ccnc2ccsc12 (single isomer, unassigned) [Example 105, (1r,4r)-4-(3-chloroanilino)-2′-[(1R*,2S*)-2-{[(thieno[3,2-b]pyridin-7-yl)oxy]methyl}cyclopropyl]-2′,3′-dihydrospiro[cyclohexane-1,1′-indene]-4-carboxylic acid]	3700
O=C(O)[C@]1(Nc2cccc(Cl)c2)CC[C@]2(CC1)C(c1cccc(OC(F)(F)F)c1)=Cc1ccccc12 [Example 314, (1s,4s)-4-(3-chloroanilino)-2′-[3-(trifluoromethoxy)phenyl]spiro[cyclohexane-1,1′-indene]-4-carboxylic acid]	528
Cc1cccc(C2=Cc3ccccc3[C@]23CC[C@@](Nc2cccc(Cl)c2)(C(=O)O)CC3)c1 [Example 335, (1s,4s)-4-(3-chloroanilino)-2′-(3-methylphenyl)spiro[cyclohexane-1,1′-indene]-4-carboxylic acid]	889
O=C(O)[C@]1(Nc2cccc(Cl)c2)CC[C@]2(CC1)C(COCCc1ccccc1F)=Cc1ccccc12 [Example 410, (1s,4s)-4-(3-chloroanilino)-2′-{[2-(2-fluorophenyl)ethoxy]methyl}spiro[cyclohexane-1,1′-indene]-4-carboxylic acid]	550
CC[C@H](COc1ccccc1)C[C@H]1Cc2ccccc2[C@]12CC[C@@](Nc1cccc(Cl)c1)(C(=O)O)CC2 [Example 541, (1r,2′S,4S)-4-(3-chloroanilino)-2′-[(2S)-2-(phenoxymethyl)butyl]-2′,3′-dihydrospiro[cyclohexane-1,1′-indene]-4-carboxylic acid]	1170
O=C(O)[C@]1(Nc2cccc(Cl)c2)CC[C@]2(CC1)C(c1cccc(Oc3ccccc3)c1)=Cc1ccccc12 [Example 300, (1s,4s)-4-(3-chloroanilino)-2′-(3-phenoxyphenyl)spiro[cyclohexane-1,1′-indene]-4-carboxylic acid]	174

Continued, values first:

Ki [nM]	Compound
1870	O=C(O)[C@]1(Nc2cccc(Cl)c2)CC[C@@]2(CC1)c1ccccc1[C@@H]1C[C@@H]12 (single isomer, unassigned) [Example 107, (1r,1′aR*,4r,6′aS*)-4-(3-chloroanilino)-1′a,6′a-dihydro-1′H-spiro[cyclohexane-1,6′-cyclopropa[a]indene]-4-carboxylic acid]
89000	O=C(O)[C@]1(Nc2cccc(Br)c2)CC[C@]2(CC1)c1ccccc1CC2c1ccccc1 (single isomer, unassigned) [Example 210, (1s,4s)-4-(3-bromoanilino)-2′-phenyl-2′,3′-dihydrospiro[cyclohexane-1,1′-indene]-4-carboxylic acid]
6090	O=C(O)[C@]1(Nc2cccc(Cl)c2)CC[C@]2(CC1)C(C1=CCCC1)=Cc1ccccc12 [Example 277, (1r,4r)-4-(3-chloroanilino)-2′-(cyclopent-1-en-1-yl)spiro[cyclohexane-1,1′-indene]-4-carboxylic acid]
555	O=C1CCc2c(OCCCC3Cc4ccccc4[C@]34CC[C@@](Nc3cccc(Cl)c3)(C(=O)O)CC4)cccc21 (stereo partly shown) [Example 435, (1r,4r)-4-(3-chloroanilino)-2′-{3-[(1-oxo-2,3-dihydro-1H-inden-4-yl)oxy]propyl}-2′,3′-dihydrospiro[cyclohexane-1,1′-indene]-4-carboxylic acid]
1690	COc1ccc(C2=Cc3ccccc3[C@]23CC[C@@](Nc2cccc(Cl)c2)(C(=O)O)CC3)c(Cl)c1 [Example 251, (1s,4s)-4-(3-chloroanilino)-2′-(2-chloro-4-methoxyphenyl)spiro[cyclohexane-1,1′-indene]-4-carboxylic acid]
15800	Cc1ccc(S(=O)(=O)N2Cc3ccccc3C23CCC(Nc2cccc(Cl)c2)(C(=O)O)CC3)cc1 (single isomer, unassigned) [Example 29, 4-(3-chloroanilino)-2′-(4-methylbenzene-1-sulfonyl)-2′,3′-dihydrospiro[cyclohexane-1,1′-isoindole]-4-carboxylic acid]
2440	COc1cc(OC)cc([C@@H]2Cc3ccccc3[C@]23CC[C@@](Nc2cccc(Cl)c2)(C(=O)O)CC3)c1 [Example 336, (1r,2′S,4S)-4-(3-chloroanilino)-2′-(3,5-dimethoxyphenyl)-2′,3′-dihydrospiro[cyclohexane-1,1′-indene]-4-carboxylic acid]
138	O=C(O)[C@]1(Nc2cccc(Cl)c2)CC[C@@]2(CC1)c1ccccc1CC2CCCOc1ccccc1Cl (stereo partly shown) [Example 431, (1r,4r)-4-(3-chloroanilino)-2′-[3-(2-chlorophenoxy)propyl]-2′,3′-dihydrospiro[cyclohexane-1,1′-indene]-4-carboxylic acid]
1740	Cc1ccc(C2Cc3ccccc3C23CCC(Nc2cccc(Br)c2)(C(=O)O)CC3)cc1 (stereo not shown) [Example 216, 4-(3-bromoanilino)-2′-(4-methylphenyl)-2′,3′-dihydrospiro[cyclohexane-1,1′-indene]-4-carboxylic acid]
12500	COc1ccc(C)c(C2Cc3ccccc3[C@]23CC[C@@](Nc2cccc(Cl)c2)(C(=O)O)CC3)c1 (single isomer, unassigned) [Example 271, (1r,4r)-4-(3-chloroanilino)-2′-(5-methoxy-2-methylphenyl)-2′,3′-dihydrospiro[cyclohexane-1,1′-indene]-4-carboxylic acid]
